{"source": "patent US9018216B2", "about": "“Solid forms of (R)-2-(5-(2-(3-ethylureido)-6-fluoro-7-(tetrahydrofuran-2-yl)-1H-benzo[d]imidazol-5-yl)pyrimidin-2-yl)propan-2-yl dihydrogen phosphate and salts thereof” (priority 2012, dated 2015)", "key": {"[1]": {"experiment": "Stability of the solid forms (net increase in total impurities at 40 C/30% RH)", "type": "physicochemical", "conditions": "17 days"}, "[2]": {"system": "Staphylococcus aureus ATCC 29213", "experiment": "microbe, parasite or virus in culture", "type": "cell-based", "conditions": "Staphylococcus aureus, Protocol 1"}, "[3]": {"system": "Enterococcus faecalis ATCC 29212", "experiment": "Gyrase MIC determination using microdilution broth method (Protocol 1)", "type": "cell-based", "conditions": "Enterococcus faecalis, ATCC29212, Enterococcus faecalis ATCC 29212, with 3% Laked Horse Blood, read-out: MIC"}, "[4]": {"system": "Enterococcus faecium ATCC 49624", "experiment": "Gyrase MIC determination using microdilution broth method (Protocol 1)", "type": "cell-based", "conditions": "ATCC49624, Enterococcus faecium ATCC 49624 with 3% Laked Horse Blood, read-out: MIC"}, "[5]": {"system": "Streptococcus pneumoniae ATCC 10015", "experiment": "Gyrase MIC determination using microdilution broth method (Protocol 1)", "type": "cell-based", "conditions": "ATCC10015, Streptococcus pneumoniae ATCC 10015, with 3% Laked Horse Blood"}, "Escherichia coli AG100": {"system": "Escherichia coli AG100", "experiment": "Gyrase MIC determination against Gram negatives using microdilution broth method (Protocol 2)", "type": "cell-based", "conditions": "read-out: MIC", "method": "Compounds of this invention were tested for antimicrobial activity by susceptibility testing in liquid media. […] The specific protocols used were as follows:\nProtocol 2: Gyrase MIC Determination of Compounds Against Gram Negatives Using Microdilution Broth Method\nStrains (MHII Media for all; Broth and Agar): • 1. Escherichia coli AG100 WT • 2. Escherichia coli AG100 tolC • 3. […] Haemophilus influenzae Rd0894 (AcrA−)\nInoculum Prep: • 1. Using the BBL Prompt kit, picked 5 big or 10 small, well separated colonies from cultures grown on agar medium and inoculated 1 mL sterile saline that came with the kit. • 2. Vortexed the wells for ˜30 s to give a suspension of ˜10^8 cells/mL. Actual density could be confirmed by plating out dilutions of this suspension. • 3. Diluted the suspension 1/100 by transferring 0.15 mL of cells into 15 mL (˜10^6 cells/mL) sterile broth (see below) for each plate of compounds tested, swirled to mix. […] Used 50 μl cells (˜5×10^4 cells) to inoculate each microtiter well containing 50 μl of the drug diluted in broth (see below).\nDrug Dilutions, Inoculation, MIC Determination: • 1. […] Diluted drug/compound stocks to 200× desired final concentration in 50 μL DMSO. If starting concentration of MICs was 8 μg/mL final concentration, then required 6.25 μL of stock+43.75 μL DMSO. Each 200× stock was placed in a separate row of column 1 of a new 96 well microtiter plate. • 3. Added 25 μL of DMSO to columns 2-12 of all rows of the microtiter plate containing 200× compound stocks and serially diluted 25 μL from column 1 through column 11, changed tips after each column. i.e. 25 μL compound+25 μL DMSO=2× dilution. Left “no compound” DMSO well at the end of the series for control. • 4. For each strain tested, prepared two microtiter plates with 50 μL of MHII broth using a Matrix pipettor. • 5. Transferred 0.5 μL of each dilution (w/Matrix auto-pipettor) to 50 μL of medium/microtiter well prior to the addition of 50 μl of cells. The usual starting concentration of compound was 8 μg/mL after the 1/200 dilution into medium+cells−compound concentrations decreased in 2× steps across the rows of a microtiter plate. All MICs were done in duplicate. • 6. All wells were inoculated with 50 μl of diluted cell suspension (see above) to a final volume of 100 μl. • 7. After inoculum was added, each well was mixed thoroughly with a manual multichannel pipettor; same tips were used going from low to high concentration of drug in the same microtiter plate. • 8. Plates were incubated at 37° C. for at least 18 hours. • 9.\nExamined the test plates after the correct incubation time and read the MIC endpoint at the concentration where a marked reduction occurred in the appearance of growth on the test plate as compared to that of growth on the positive control plates."}}, "note": "Read-outs that look alike come from different tables or passages of the source."}
{"smiles": "CCNC(=O)Nc1nc2cc(-c3cnc(C(C)(C)OP(=O)([O-])[O-])nc3)c(F)c([C@H]3CCCO3)c2[nH]1.[Na+].[Na+]", "note": "[Form X, disodium (R)-2-(5-(2-(3-ethylureido)-6-fluoro-7-(tetrahydrofuran-2-yl)-1H-benzo[d]imidazol-5-yl)pyrimidin-2-yl)propan-2-yl phosphate]", "values": [{"measurement": "Net % increase in total impurities", "setting": "[1]", "result": 0.59, "unit": "%"}, {"measurement": "MIC", "setting": "[2]; ATCC29213, Staphylococcus aureus ATCC 29213 GyrB T173I", "result": "> 16", "unit": "µg/mL"}, {"measurement": "MIC", "setting": "[2]; ATCC29213, Staphylococcus aureus ATCC 29213 with 50% Mouse Serum", "result": 2, "unit": "µg/mL"}, {"measurement": "MIC", "setting": "[3]", "result": 2, "unit": "µg/mL"}, {"measurement": "MIC", "setting": "[4]", "result": 4, "unit": "µg/mL"}, {"measurement": "MIC", "setting": "[5]", "result": 0.25, "unit": "µg/mL"}, {"measurement": "MIC", "setting": "Escherichia coli AG100; Escherichia coli AG100 WT", "result": "> 16", "unit": "µg/mL"}, {"measurement": "MIC", "setting": "Escherichia coli AG100; Escherichia coli, AG100, Escherichia coli AG100 tolC", "result": 2, "unit": "µg/mL"}]}
